From PMC8092876, “A Leucyl-tRNA Synthetase Inhibitor with Broad-Spectrum Antimycobacterial Activity” (Antimicrobial Agents and Chemotherapy, 2021)
Converted amounts (≈) assume the structure as drawn. “And” between values parts separate entries of the source, which are not always exact repeats. Equal values may be shown once. Read-outs that look alike come from different tables or passages of the source.

How the values were obtained:
[1] = tested on: M. abscessus subsp. bolletii M232; test: MIC assay in 96-well plate format; format: cell-based; conditions: Mycobacteroides abscessus; M. abscessus subsp. bolletii M232, clinical isolate
M. abscessus Bamboo [2] = test: MIC and MBC determination in culture tubes (planktonic)
Description: M. abscessus Bamboo culture was grown to mid-log-phase (OD600 = 0.4 to 0.6) and diluted to OD600 = 0.1 (1 × 10^7 CFU/ml). Aliquots of 1.2 ml of the resulting bacteria suspension were transferred into 14 ml vented, round-bottom tubes (Thermo Fisher 150268, Rochester, NY, United States). A 10-point 2-fold dilution series of the compound was prepared, starting at 100 times the desired highest concentration. The compound concentration range tested was 100 to 0.195 μM. For each drug concentration tested, 12 μl of drug stock was added to two tubes and vortexed. Aliquots of 12 μl of DMSO were added to two tubes as the untreated controls (1% final DMSO concentration). From each tube, 200 μl was transferred to wells on a 96-well plate and the OD600 was measured using a Tecan Infinite M200 plate reader (day 0 reading). The tubes (1 ml final volume) were incubated on a tilted rack at 37°C on an orbital shaker at 220 rpm. On day 2, tubes were vortexed before transferring 200 μl onto a 96-well plate to measure the OD600 again (day 2 reading). To determine the MIC, day 0 and day 2 OD600 values were analyzed as previously described for MIC determination in 96-well plate format. To determine the MBC, CFU measurement was done for the OD600 = 0.1 bacteria suspension on day 0 and for each tube on day 2. Specifically, serial 10-fold dilutions were prepared in phosphate-buffered saline (Thermo Fisher 10010023) containing 0.025% Tween 80 (PBS/Tween 80) and plated on 7H10 agar. The MBC was defined as the lowest concentration of drug that reduced the CFU/ml value by 10-fold relative to the day 0 CFU/ml value.

M. abscessus Bamboo [3] = test: MIC assay in 96-well plate format; format: cell-based, M. abscessus subsp. abscessus; conditions: Mycobacteroides abscessus
[4] = tested on: M. abscessus Bamboo RM3 (LeuS V417M); test: microbe, parasite or virus in culture; format: cell-based; conditions: Mycobacteroides abscessus, RM3, batch 1, LeuS V417M
[5] = tested on: M. abscessus Bamboo RM1 (LeuS A428P); test: microbe, parasite or virus in culture; format: cell-based; conditions: Mycobacteroides abscessus
[6] = tested on: M. abscessus subsp. abscessus M199; test: MIC assay in 96-well plate format; format: cell-based; conditions: Mycobacteroides abscessus; M. abscessus subsp. abscessus M199, clinical isolate
M. avium 11 = test: MIC assay in 96-well plate format; format: cell-based, M. avium subsp. hominissuis
[7] = tested on: M. abscessus subsp. abscessus M422; test: MIC assay in 96-well plate format; format: cell-based; conditions: Mycobacteroides abscessus; M. abscessus subsp. abscessus M422, clinical isolate
M. chimaera CCUG 50989T = test: MIC assay in 96-well plate format; format: cell-based; conditions: CCUG50989T, culture collection reference strain
[8] = tested on: M. intracellulare ATCC 13950; test: MIC assay in 96-well plate format; format: cell-based; conditions: Mycobacterium intracellulare, ATCC13950; M. intracellulare ATCC 13950, culture collection reference strain
[9] = tested on: M. abscessus Bamboo biofilms; test: Biofilm growth inhibition assay (biofilm MIC and MBC); format: cell-based, M. abscessus subsp. abscessus; conditions: Mycobacteroides abscessus
Description: The biofilm growth inhibition assay was performed as previously described ([40]). Innovotech MBEC 96-well biofilm assay plates (Innovotech 19111, Edmonton, AB, Canada) were used, and the supplier’s manual was followed with minor modifications. Mid-log-phase M. abscessus Bamboo precultures (OD600 = 0.4 to 0.6) were spun down at 3200 × g for 10 min at 25°C and washed with 7H9 medium without Tween 80 (7H9nt). Bacteria were resuspended into 25 ml 7H9nt to an OD600 of 0.0125 (1.0 × 10^6 CFU/ml). […] The lids with the pegs were transferred to a new MBEC multititer plate containing 150 μl of fresh 7H9nt medium per well without bacteria (0 h time point). After that, the pegs with growing biofilm were transferred once a day to a new multititer plate containing fresh 7H9nt medium. To measure growth of the biofilm formed on the peg, the pegs were washed in 200 μl of 7H9nt medium before they were aseptically removed and placed in 1.7 ml microcentrifuge tubes (VWR 87003-294, Rador, PA, United States) containing 500 μl PBS/Tween 80. The microcentrifuge tubes were vigorously vortexed at 2,000 rpm for 90 s at 25°C to detach the bacteria from the pegs before samples were serially diluted and plated for the determination of CFU/peg. […] The average drug-free biofilm growth was calculated by subtracting the average 24 h CFU/peg value from the average 72 h CFU/peg value for the untreated control pegs. The biofilm MIC was defined as the lowest drug concentration that reduced the CFU/peg by 90% relative to that of the average drug-free biofilm growth.

[10] = tested on: M. abscessus subsp. bolletii CCUG 50184T; test: MIC assay in 96-well plate format; format: cell-based; conditions: Mycobacteroides abscessus, culture collection reference strain
[11] = tested on: M. abscessus subsp. massiliense M111; test: MIC assay in 96-well plate format; format: cell-based; conditions: Mycobacteroides abscessus; M. abscessus subsp. massiliense M111, clinical isolate
[12] = tested on: M. abscessus subsp. bolletii M506; test: MIC assay in 96-well plate format; format: cell-based; conditions: Mycobacteroides abscessus; M. abscessus subsp. bolletii M506, clinical isolate
[13] = tested on: M. abscessus subsp. abscessus K21; test: MIC assay in 96-well plate format; format: cell-based; conditions: Mycobacteroides abscessus; M. abscessus subsp. abscessus K21, clinical isolate, infection model
[14] = tested on: M. abscessus subsp. abscessus M404; test: MIC assay in 96-well plate format; format: cell-based; conditions: Mycobacteroides abscessus; M. abscessus subsp. abscessus M404, clinical isolate
[15] = tested on: M. abscessus Bamboo RM2 (LeuS K502E); test: microbe, parasite or virus in culture; format: cell-based; conditions: Mycobacteroides abscessus
[16] = tested on: M. abscessus Bamboo RM4 (LeuS T327R); test: microbe, parasite or virus in culture; format: cell-based; conditions: Mycobacteroides abscessus
[17] = tested on: M. abscessus Bamboo RM5 (LeuS V417M); test: microbe, parasite or virus in culture; format: cell-based; conditions: Mycobacteroides abscessus, RM5, batch 2, LeuS V417M
[18] = tested on: M. abscessus subsp. abscessus M9; test: MIC assay in 96-well plate format; format: cell-based; conditions: Mycobacteroides abscessus; M. abscessus subsp. abscessus M9, clinical isolate
[19] = tested on: M. abscessus subsp. massiliense CCUG 48898T; test: MIC assay in 96-well plate format; format: cell-based; conditions: Mycobacteroides abscessus, culture collection reference strain
[20] = tested on: M. abscessus subsp. abscessus ATCC 19977; test: MIC assay in 96-well plate format; format: cell-based; conditions: Mycobacteroides abscessus, ATCC19977; M. abscessus subsp. abscessus ATCC 19977, culture collection reference strain
[21] = tested on: M. abscessus subsp. abscessus M337; test: MIC assay in 96-well plate format; format: cell-based; conditions: Mycobacteroides abscessus; M. abscessus subsp. abscessus M337, clinical isolate
[22] = tested on: M. tuberculosis H37Rv ATCC 27294; parameters: method as in PMID 28953378; conditions: 7H9; cited from earlier work
[23] = tested on: M. tuberculosis H37Rv ATCC 27294; test: MIC assay in 96-well plate format; format: cell-based; conditions: Mycobacterium tuberculosis, 168 h

**Q.** For CC[C@H]1OC(=O)[C@H](C)[C@@H](O[C@H]2C[C@@](C)(OC)[C@@H](O)[C@H](C)O2)[C@H](C)[C@@H](O[C@@H]2O[C@H](C)C[C@H](N(C)C)[C@H]2O)[C@](C)(OC)C[C@@H](C)C(=O)[C@H](C)[C@@H](O)[C@]1(C)O [CLR, clarithromycin, reference compound], which MIC [1] is on record?
**A.** 0.95 µM (≈ 0.711 µg/mL)

**Q.** And the MBC (M. abscessus Bamboo [2]; Mycobacteroides abscessus)?
**A.** > 100 µM

**Q.** And the MIC (M. abscessus Bamboo [2]; Mycobacteroides abscessus, 48 h)?
**A.** 0.28 µM (≈ 0.209 µg/mL)

**Q.** What about the MBC (M. abscessus Bamboo [2]; planktonic M. abscessus Bamboo in culture tubes, day 2, 10-fold CFU/ml reduction vs day 0) of the same compound?
**A.** >100 µM

**Q.** And the MIC (M. abscessus Bamboo [3])?
**A.** 0.31 µM (≈ 0.232 µg/mL)

**Q.** What about the MIC (M. abscessus Bamboo [3]; 72 h, M. abscessus Bamboo, 7H9, 3 days, read-out: MIC) of the same compound?
**A.** 0.23 µM (≈ 0.172 µg/mL)

**Q.** And the MIC (M. abscessus Bamboo [3]; 72 h, M. abscessus Bamboo, CAMH broth, 3 days, read-out: MIC)?
**A.** 0.07 µM (≈ 0.0524 µg/mL)

**Q.** What about the MIC [4] of the same compound?
**A.** 0.43 µM (≈ 0.322 µg/mL)

**Q.** And the MIC [5]?
**A.** 0.36 µM (≈ 0.269 µg/mL)

**Q.** And the MIC [6]?
**A.** 2.7 µM (≈ 2.02 µg/mL)

**Q.** And the MIC (M. avium 11; Mycobacterium avium, 96 h, M. avium 11, 7H9, 4 days, read-out: MIC)?
**A.** 0.3 µM (≈ 0.224 µg/mL)

**Q.** And the MIC [7]?
**A.** 0.65 µM (≈ 0.486 µg/mL)

**Q.** What about the MIC (M. chimaera CCUG 50989T) of the same compound?
**A.** 0.19 µM (≈ 0.142 µg/mL)

**Q.** And the MIC [8]?
**A.** 0.15 µM (≈ 0.112 µg/mL)

**Q.** What about the MBC ([9]; 10-fold CFU/peg reduction vs 24 h) of the same compound?
**A.** > 100 µM

**Q.** What about the MIC ([9]; 48 h with drug, 90% reduction of CFU/peg growth) of the same compound?
**A.** 1.6 µM (≈ 1.2 µg/mL)

**Q.** What about the MIC [10] of the same compound?
**A.** 2.5 µM (≈ 1.87 µg/mL)

**Q.** And the MIC [11]?
**A.** 0.24 µM (≈ 0.18 µg/mL)

**Q.** And the MIC [12]?
**A.** 0.28 µM (≈ 0.209 µg/mL)

**Q.** And the MIC [13]?
**A.** 0.4 µM (≈ 0.299 µg/mL)

**Q.** And the MIC [14]?
**A.** 0.2 µM (≈ 0.15 µg/mL)

**Q.** And the MIC [15]?
**A.** 0.38 µM (≈ 0.284 µg/mL)

**Q.** And the MIC [16]?
**A.** 0.42 µM (≈ 0.314 µg/mL)

**Q.** And the MIC [17]?
**A.** 0.46 µM (≈ 0.344 µg/mL)

**Q.** And the MIC [18]?
**A.** 0.73 µM (≈ 0.546 µg/mL)

**Q.** What about the MIC [19] of the same compound?
**A.** 0.19 µM (≈ 0.142 µg/mL)

**Q.** What about the MIC [20] of the same compound?
**A.** 0.9 µM (≈ 0.673 µg/mL)

**Q.** What about the MIC [21] of the same compound?
**A.** 0.9 µM (≈ 0.673 µg/mL)

**Q.** With NC[C@H]1OB(O)c2c(OCCO)ccc(Cl)c21 [GSK656, (S)-3-(aminomethyl)-4-chloro-7–(2-hydroxyethoxy)benzo[c][1,2]oxaborol-1(3H)-ol] as the compound, how does the MIC (M. abscessus Bamboo [3]; 72 h, read-out: MIC) read?
**A.** 0.27 µM (≈ 0.0695 µg/mL)

**Q.** What about the MIC (M. avium 11; Mycobacterium avium, 11, 96 h) of the same compound?
**A.** > 50 µM

**Q.** What about the MIC [22] of the same compound?
**A.** 0.08 μM and 0.08^d μM

**Q.** For CO[C@H]1/C=C/O[C@@]2(C)Oc3c(C)c(O)c4c(O)c(c(/C=N/N5CCN(C)CC5)c(O)c4c3C2=O)NC(=O)/C(C)=C\C=C\[C@H](C)[C@H](O)[C@@H](C)[C@@H](O)[C@@H](C)[C@H](OC(C)=O)[C@@H]1C [rifampin, reference compound], which MIC [23] is on record?
**A.** 0.66 µM (≈ 0.543 µg/mL)
